In patent US20090209469A1, “Use of Exendins and GLP-1 Receptor Agonists for Altering Lipoprotein Particle Size and Subclass Composition” (priority 2006, published 2009):

Columns and labels:
[1] = system: Patients with type 2 diabetes inadequately controlled by sulphonylurea and metformin; experiment: Lipoprotein subclass particle concentrations and average particle diameters by proton NMR spectroscopy, 1-year open-label trial (test meal study); format: in vivo, human; conditions: change from baseline to endpoint (week 52), type 2 diabetes patients
Procedure: In the context of the present invention, lipoprotein concentrations are measured according to standard nuclear magnetic resonance techniques, where the measured amplitudes of characteristic lipid methyl group signals provide particle concentrations.
In the context of the present invention, lipoprotein subclass particle concentrations and average particle diameters are measured using proton nuclear magnetic resonance spectroscopy using the algorithm of LipoScience, Inc. See e.g., Festa et al., Nuclear Magnetic Resonance Lipoprotein Abnormalities in Prediabetic Subjects in the Insulin Resistance Artherosclerosis Study, Circulation, 111:3465-3472 (2005). […]
Lipoprotein subclass particle concentrations and average particle diameters are measured using proton nuclear magnetic resonance spectroscopy. See e.g., Festa et at., Nuclear Magnetic Resonance Lipoprotein Abnormalities in Prediabetic Subjects in the Insulin Resistance Artherosclerosis Study, Circulation, 111:3465-3472 (2005).
The particle concentrations of different lipoprotein subclasses are obtained by measuring the amplitudes of the characteristic lipid methyl NMR signals. The signal amplitudes of various subclasses are extracted from the overall lipid methyl group signal with a spectral deconvolution algorithm (Lipo Science, Inc.). See e.g., Festa. VLDL and LDL particle concentrations are given in nanomoles per liter. HDL particle concentrations are provided in micromoles per liter.
Average particle sizes (in nanometers diameter) are computed as the sum of the diameter of the particle subclass multiplied by the relative mass percentage of the subclass as estimated from the amplitude of its methyl NMR signal.
Particle concentrations and sizes are compared before and after administration of an exendin or exendin agonist. See e.g., Table 1.

[2] = system: Patients with type 2 diabetes inadequately controlled by sulphonylurea and metformin; experiment: Fibrinogen concentration by the von Clauss clotting method; format: in vivo, human; conditions: type 2 diabetes patients
Procedure: For test meal data, postprandial glucose incremental AUC0-4h is calculated at baseline and week 52.
Fibrinogen activity is measured by the von Clauss clotting method. By the von Clauss clotting method, thrombin is added to a test sample and the time until clotting is measured. Fibrinogen concentration is determined by comparing clotting time for the test sample to the clotting time of a standard curve for various reference plasmas.
Fibrinogen is measured at baseline, Week 16, Week 52, or at early termination of the study.

## biphasic insulin aspart 30/70
[1]
  HDL Particle Size, Δ mean: +0.04 nm
  VLDL Particle Size, Δ mean: −1.6 nm
[1]; exenatide 5 μg BID 4 weeks then 10 μg BID 48 weeks vs biphasic insulin aspart 30/70
  LDL Particle Size, Δ mean: +0.11 nm
[1]; particle concentration
  Large HDL, Δ mean: +1.0 μmol/L
  Large LDL, Δ mean: +37.7 nmol/L
  Small LDL, Δ mean: -25.8 nmol/L
  Small VLDL, Δ mean: +8.5 nmol/L
  Total HDL, Δ mean: +2.5 μmol/L
  Total LDL, Δ mean: +5.0 nmol/L
  Total VLDL, Δ mean: +12.9 nmol/L
  Very Small LDL, Δ mean: -17.0 nmol/L
[2]; baseline, before treatment
  Fibrinogen level, mean, Baseline: 4.22 g/L
[2]; endpoint, last post-baseline measurement carried forward (Week 16, Week 52 or early termination)
  Fibrinogen level, mean, Endpoint (LOCF): 4.16 g/L
